The values below come from article PMC5687811 (ACS chemical neuroscience, 2016).

The subject of data set [1] is mouse (m)MC3R. As to conditions: HEK293 cells, cited from earlier work.
The conditions of data set [2]: ref [13],[24]; cited from earlier work.
The subject of data set [3] is females, ovariectomized or estradiol treated. As to conditions: cited from earlier work; for effect of ovariectomy or estradiol treatment on food intake after ligand: ref [13],[21],[34].
Data set [4] has as its system male and female rats. As to conditions: ICV, ref [5] Maranon and coworkers in 2014, cited from earlier work.
For data set [5], the system named is wild type female and male littermate mice. The experiment in a line: Cumulative food intake after ICV administration, TSE metabolic cages. In kind it is in vivo, mice (mixed C57BL/6J and 129/Sv).
Data set [6] concerns male and female mice. In kind it is in vivo, mice (mixed C57BL/6J and 129/Sv). As to conditions: 5 nmol ICV, conventional cages, pilot.
For data set [7], the system named is wild type female and male littermate mice. The experiment in a line: Respiratory exchange ratio. In kind it is in vivo, mice (mixed C57BL/6J and 129/Sv).
Data set [8] shares this test system. As to the kind of experiment: Energy expenditure after ICV administration, TSE metabolic cages. The format is in vivo, mice (mixed C57BL/6J and 129/Sv).
Data set [9] shares this test system. The experiment in a line: Locomotor activity. The format is in vivo, mice (mixed C57BL/6J and 129/Sv). As to conditions: for total ambulatory activity (cumulative beam breaks): ICV.
A short description of data set [10]: Solubility / precipitation of SKY2-23-7. The format is physicochemical.
Data set [11] relates to mMC4R. As to conditions: HEK293 cells, ref [22],[23] (Doering et. al.), cited from earlier work.
The test system of data set [12] is mMC1R. As to conditions: read-out: EC50 at mMC1R; agonist; ref [22],[23]; cited from earlier work.
Data set [13] concerns mMC5R. As to conditions: read-out: EC50 at mMC5R; agonist; ref [22],[23]; cited from earlier work.
In data set [14] the test system is mMC4R. As to conditions: antagonist/inverse agonist, ref [40],[41], cited from earlier work.
The subject of data set [15] is female and male rats. As to conditions: ref [13]; cited from earlier work.
The subject of data set [16] is MC3R and MC4R knockout mice. As to conditions: cited from earlier work.

Several values for one entry are separate records, joined by “and”; a condition that tells them apart may be missing. Identical values can stand only once. Entries after “also recorded” stand apart in the source; their conditions may differ. Like-named read-outs stand apart in the source and are kept apart here. [ ]: non-standard residue; d: D form. dPhe(4-I) = N[C@H](Cc1ccc(I)cc1)C(=O)O

As for SHU9119, the “partial agonism at mMC3R” value in data set [1] (at 1 µM, ref [22] (Doering et. al.)) is on record as 50%. In [2], the energy expenditure result is “decrease energy expenditure”. The “effect of ovariectomy or estradiol treatment on food intake after ligand” value in data set [3] is “minimal effects on food intake”. In addition, the blood pressure result in data set [4] (female rats) is reported as “no effect on blood pressure”; in data set [4] (male rats), “significantly reduced blood pressure”.

Turning to Ac-W[dPhe(4-I)]RW-NH2 [SKY2-23-7], the cumulative food intake result in data set [5] (female, 2.5 nmol ICV, 6–24 hours post-administration) is recorded as “significant increase in food intake”; in [5] (female, 5 nmol ICV) it was “no significant effect”; in data set [5] (female, 7.5 nmol ICV) it was “no significant effect”; in data set [5] (male, 2.5 nmol ICV) it was “no significant effect”; in data set [5] (male, 7.5 nmol ICV, 2–24 hours post-administration), “significant increase in food intake”. For the same substance, the “cumulative food intake, dose response” value is reported as “A dose response pattern is observed” in data set [5] (female, 2.5 nmol, 1 nmol, and 0.5 nmol ICV); “dose dependent increase in food intake” in data set [5] (male, ICV, metabolic cages, p<0.0001). Besides, the food intake result in [6] (female, trend of increase in food intake) is reported as “not observed”; in [6] (male) it was “an increase in food intake was observed”. For the same substance, in [7] (female, 2.5 nmol ICV, both dark and light cycles, p<0.01), the “average RER” value is recorded as “significantly increased”. Further, the RER entry in data set [7] (female, 7.5 nmol ICV) is on record as “no effect”; in [7] (male, 2.5 nmol ICV) it was “minimal effect”. In addition, the “hourly RER” value in data set [7] (male, 7.5 nmol ICV, early light cycle 15–18 hrs post-administration) is given as “significantly increased”; in data set [7] (male, 7.5 nmol ICV, individual time points 2–7 and 10–14 hours) it was “increased”. The “total average RER” value in data set [7] (male, 7.5 nmol ICV, entire light cycle (14–26 hrs)) is “No significant effect”; in data set [7] (male, 7.5 nmol ICV, first dark cycle (0–14 hrs), p<0.01) it was “increased”; in data set [7] (male, 7.5 nmol ICV, first two hours following injection, p<0.01) it was “increased”. For the same substance, the energy expenditure entry in data set [8] (female, 2.5 nmol ICV, p<0.001, observed at 5, 6, 15, 21, and 22 hours) is reported as “significant increase in energy expenditure”; in [8] (male, doses lower than 7.5 nmol ICV) it was “No significant effect”. Moreover, the “total calories burned in 24 hours” value in [8] (female, 7.5 nmol ICV, p<0.05) is “significant decrease in total calories burned”. Also, the “energy expenditure (trend)” value in [8] (male, 7.5 nmol ICV) is “trended towards decreasing energy expenditure”. Moreover, in [8] (male, 7.5 nmol ICV, at 4, 20, 21, 23 and 24 hours, compared to control), the “hourly energy expenditure normalized to weight (Kcal/hr/kg)” value is listed as “decrease in energy expenditure”. Moreover, the “total calories spent in 24 hours” value in data set [8] (male, ICV) was “no effect”. Besides, the hourly activity entry in data set [9] (female, 2.5 nmol ICV, 5 hours post administration) is “Increased activity”; in data set [9] (female, 2.5 nmol ICV, 24 hours post administration), “significant decrease in activity”; in [9] (male, 7.5 nmol ICV, time points 8, 15, 18, and 24 hours), “significant increases in activity”. Also, the total activity entry in data set [9] (female, 5 nmol ICV, light cycle, p<0.05) was “significant decrease in total activity”; in [9] (female, other doses ICV, dark cycle (0–14 hrs), p=0.28), “no other doses resulted in a significant changes in total activity”; in data set [9] (female, other doses ICV, light cycle (14–26 hrs), p=0.65) it was “no other doses resulted in a significant changes in total activity”. Besides, the “total ambulatory activity (cumulative beam breaks)” value is “no significant effect” in data set [9] (male, dark cycle (0–14 hrs), p=0.39) and “no significant effect” in data set [9] (male, light cycle (14–26 hrs), p=0.64). In addition, in [10] (added to saline alone), the solubility in saline result is on record as “precipitated out”. The “solubility limit on dosing” value in data set [10] (doses above 7.5 nmol ICV, male mice) is “higher dosing was prevented due to the solubility”. Further, in data set [1] (Schild analysis, antagonist, ref [22],[23] (Doering et. al.)), the pA2 (usually the negative logarithm of the molar antagonist concentration that doubles the agonist concentration needed for the same response) at mMC3R was 5.43±0.16. In addition, in [1] (up to 100 µM, ref [22],[23] (Doering et. al.)), the “agonist activity at mMC3R” value is recorded as “minimal agonist activity; also recorded: lacks the mMC3R partial agonism”. The “pA2 at mMC4R” value in [11] (Schild analysis, antagonist) was 7.83 and 7.83±0.16. Further, the “agonist activity at mMC4R” value in [11] (up to 100 µM) is on record as “minimal agonist activity”. In addition, the EC50 (commonly the concentration at which the effect is half-maximal) in data set [12] was 2000 ± 600 nM; in data set [13] it was 2800 ± 1100 nM.

In the case of “AGRP: endogenous MC3R antagonist and MC4R antagonist/inverse agonist AGRP (SSRRCVRLHESCLGQQVPCCDPCATCYCRFFNAFCYCRKLGTAMNPCSRT; UniProt O00253 83-132, looked up)”, the “pA2 at mMC4R” value in data set [14] is given as 9.4. Also, in data set [14] (read-out: Ki at mMC4R), the inhibition constant (Ki) – broadly, a measure of affinity in units of concentration, obtained from inhibition or displacement – is 0.4 to 2.5 nM. Further, in [15], the “energy expenditure, female versus male” value is given as “reduces energy expenditure in female rats more than in male rats” and the food intake entry is reported as “food intake is unaffected”. In addition, in data set [2], the energy expenditure entry is “decrease energy expenditure” and the “respiratory exchange ratio (RER)” value is “increase respiratory exchange ratio”. Moreover, the “effect of ovariectomy on ligand-dependent energy expenditure” value in data set [3] (females, ref [13]) was “ovariectomy can blunt”. In addition, in data set [3], the “effect of ovariectomy or estradiol treatment on food intake after ligand” value is given as “minimal effects on food intake”. In [16] (ICV, MC3R and MC4R male knockout mice, ref [8],[12]), the food intake entry is on record as “increased food intake”.

With MTII, the “sex difference in food intake effect” value in data set [16] (MC3R and MC4R knockout mice, same genotype, ref [15],[16]) was “no differences reported between male and female mice”. In addition, the food intake entry in data set [16] (MC3R and MC4R knockout mice, ref [15],[16]) is “decrease food intake”.
